These results are taken from ChEMBL document CHEMBL1201862, “PubChem BioAssay data set” (2004).

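1) Cells in 96-well plates. 2) Compound, 48 h, 5 concentrations. 3) Linear interpolation between surrounding doses. 4) Unreached endpoint = highest concentration. GI50 = concentration required for 50% inhibition of growth.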 Active and inactive are the calls of the source. Cut-off read from the data, not from the text of the source: active = GI50 up to about 1.1 µM and inactive = higher.

Common to all, as to assay: growth of human tumour cells (NCI), 48 h
Assay [1] concerns MDA-MB-435.
For assay [2], the system named is SK-MEL-28.
Assay [3] has as its system UO-31.
In assay [4] the test system is ACHN.
Assay [5] has as its system Malme-3M.
The subject of assay [6] is IGROV-1.
Assay [7] relates to PC-3.
Assay [8] deals with NCI/ADR-RES.
The test system of assay [9] is SF-268.
In assay [10] the test system is HCT-15.
For assay [11], the system named is K562.
For assay [12], the system named is SK-MEL-2.
Assay [13] has as its system BT-549.
For assay [14], the system named is CCRF-CEM.
Assay [15] relates to SNB-19.
Assay [16] relates to SK-MEL-5.
For assay [17], the system named is COLO 205.
The test system of assay [18] is A549.
Assay [19] has as its system SN12C.
For assay [20], the system named is UACC-62.

On to `COc1cc2c(cc1OCc1ccccc1)NC(=S)[C@@H]1CCCN1C2=S`, for which the GI50 in assay [1] is > 100 µM (inactive); in assay [2], > 100 µM (inactive); in assay [3], > 100 µM (inactive); in [4], > 100 µM (inactive); in assay [5], 71.6 µM (inactive); in assay [6] it was 80.7 µM (inactive). Also, the GI50 in [7] was > 100 µM (inactive); in assay [8] it was > 100 µM (inactive); in [9], > 100 µM (inactive); in assay [10], more than 100 µM; in assay [11] it was 45.2 µM (inactive); in assay [12], > 100 µM (inactive). The GI50 in [13] was > 100 µM (inactive); in [14], > 100 µM (inactive); in assay [15], > 100 µM (inactive); in assay [16], 62.8 µM (inactive); in [17], > 100 µM (inactive); in assay [18], 73.8 µM (inactive). Also, the GI50 in [19] and in [20] was > 100 µM (inactive) throughout.

As to `O=C(O)c1cc(CCc2ccc(O)c(O)c2)ccc1O`, the GI50 in [1], in assay [3], in assay [4], in assay [5], in [6] and in assay [7] was > 100 µM (inactive) each time. In addition, the GI50 in assay [8] was > 100 µM (inactive); in assay [9], > 100 µM (inactive); in [10], more than 100 µM; in [11], 21.3 µM (inactive); in assay [12] it was > 100 µM (inactive); in assay [13], > 100 µM (inactive). Besides, the GI50 in [14], in [15], in assay [16], in assay [17], in assay [18] and in assay [19] was > 100 µM (inactive) throughout. Besides, the GI50 in [20] was > 100 µM (inactive).

Regarding `CC(=O)N1N=C(c2ccc3ccccc3c2O)CC1c1ccc(Cl)cc1Cl` (stereo not drawn), the GI50 was 25.4 µM (inactive) in assay [1]; 93.1 µM (inactive) in assay [2]; > 100 µM (inactive) in assay [3]; 29.6 µM (inactive) in [4]; > 100 µM (inactive) in assay [5]; 22.4 µM (inactive) in assay [6]. The GI50 is 17.1 µM (inactive) in assay [7]; 57.7 µM (inactive) in assay [8]; 26.9 µM (inactive) in assay [9]; 56.9 µM in assay [10]; 7.69 µM (inactive) in assay [11]; > 100 µM (inactive) in assay [12]. Further, the GI50 was > 100 µM (inactive) in [13]; 3.91 µM (inactive) in [14]; 33.7 µM (inactive) in assay [16]; 28.3 µM (inactive) in [17]; 25.1 µM (inactive) in [18]; 19.6 µM (inactive) in [19]. Moreover, in assay [20], the GI50 is > 100 µM (inactive).

Take `CCN(CCCl)CCCCNc1c2ccccc2nc2ccc(OC)cc12`: the GI50 in assay [1] is 0.427 µM (active); in assay [2], 1.58 µM (inactive); in [3] it was 1.11 µM (active); in assay [4], 0.178 µM (active); in assay [5], 0.957 µM (active); in assay [6] it was 0.163 µM (active). Further, the GI50 is 0.216 µM (active) in [7]; 4.25 µM (inactive) in assay [8]; 0.171 µM (active) in assay [9]; 0.752 µM in assay [10]; 0.2 µM (active) in assay [11]; 0.662 µM (active) in [12]. Further, the GI50 in [13] was 1.38 µM (inactive); in [14], < 0.037 µM (active); in assay [15] it was 0.918 µM (active); in [16] it was 0.373 µM (active); in assay [17], 0.258 µM (active); in [18] it was 0.177 µM (active). Also, the GI50 is < 0.023 µM (active) in assay [19] and 0.171 µM (active) in assay [20].

As to `COC(=O)Nc1nc2cc(NS(=O)(=O)c3ccc(Cl)cc3)ccc2[nH]1`, the GI50 in assay [1] was 2.17 µM (inactive); in assay [2], 6.79 µM (inactive); in assay [3], 11.7 µM (inactive); in assay [4] it was 14.2 µM (inactive); in assay [5], 13.1 µM (inactive); in [6], 2.59 µM (inactive). For the same molecule, the GI50 in assay [7] was 8.55 µM (inactive); in [8] it was 8.59 µM (inactive); in assay [9] it was 10.4 µM (inactive); in assay [10], 6.44 µM; in [11], 6.3 µM (inactive); in assay [12] it was 6.37 µM (inactive). Besides, the GI50 in assay [13] is 13.4 µM (inactive); in assay [14] it was 4.35 µM (inactive); in assay [15] it was 4.33 µM (inactive); in [16], 3.99 µM (inactive); in [17], 9.1 µM (inactive); in [18], 15.9 µM (inactive). Also, the figures for the GI50 in [19] and in assay [20] were 16.3 µM (inactive) and 6.71 µM (inactive), respectively.

As to `CCCCC1(N=[N+]=[N-])C(=O)C2C=CC=C3c4ccccc4N(C1=O)C32` (stereo not drawn), the GI50 in [1] was 19.1 µM (inactive); in [2] it was 78.2 µM (inactive); in assay [3], 18.8 µM (inactive); in assay [4], 17.5 µM (inactive); in assay [5] it was 23 µM (inactive); in assay [6] it was 11.3 µM (inactive). Moreover, the GI50 in assay [7] was 18.9 µM (inactive); in assay [8], 17.7 µM (inactive); in assay [9], 19.9 µM (inactive); in assay [10], 17.2 µM; in assay [11], 17.3 µM (inactive); in [12], 11 µM (inactive). The GI50 is 24.5 µM (inactive) in assay [13]; 18.5 µM (inactive) in assay [14]; 22.1 µM (inactive) in assay [15]; 16.4 µM (inactive) in assay [16]; 18.5 µM (inactive) in [17]; 19.5 µM (inactive) in [18]. Moreover, the figures for the GI50 in [19] and in assay [20] were 30.1 µM (inactive) and 23.1 µM (inactive), respectively.

With `CC(=O)NC1C(OCc2ccccc2)OC(CO)C(O)C1OCC(=O)N[C@@H](C)C(=O)N[C@H](CCC(=O)NCCCNc1ccc([N+](=O)[O-])c2[nH]c3ccccc3c(=O)c12)C(N)=O` (stereo partly drawn), the GI50 in assay [1] is > 100 µM (inactive); in [2], > 100 µM (inactive); in assay [3], > 100 µM (inactive); in assay [4] it was 50.8 µM (inactive); in assay [5], 27.5 µM (inactive); in assay [6], 23.4 µM (inactive). Also, the GI50 in assay [7] is > 100 µM (inactive); in assay [8], > 100 µM (inactive); in assay [10], 94.2 µM; in assay [11], > 100 µM (inactive); in assay [12], > 100 µM (inactive); in assay [13], 38.4 µM (inactive). Moreover, the GI50 in [14] was > 100 µM (inactive); in [15], 37.4 µM (inactive); in assay [16], 57.9 µM (inactive); in assay [17], > 100 µM (inactive); in [18], > 100 µM (inactive); in assay [19], > 100 µM (inactive). Also, in [20], the GI50 is 36.2 µM (inactive).

`COC1=C(C)C(=O)C2=C(C1=O)C1C3CC4=C(C(=O)C(OC)=C(C)C4=O)C(CNC(=O)C(C)=O)N3C(C#N)C(C2)N1C` (stereo not drawn): the GI50 in assay [1] is 0.0016 µM (active); in [2] it was 0.00511 µM (active); in assay [4], 0.0209 µM (active); in assay [5], 0.00678 µM (active); in assay [6], 0.00424 µM (active); in [7] it was 0.00352 µM (active). Also, the GI50 in [8] was 0.296 µM (active); in [9], 0.014 µM (active); in assay [10], 0.00603 µM; in [11], 0.00153 µM (active); in assay [12], 0.00226 µM (active); in assay [13], < 0.001 µM (active). The GI50 in [14] is 0.00839 µM (active); in [15], 0.00804 µM (active); in assay [16] it was 0.00343 µM (active); in [17], 0.00274 µM (active); in assay [18] it was 0.182 µM (active); in assay [20], 0.00353 µM (active).

In the case of `COc1cc(O)c2c(=O)cc(C3(OC(C)=O)C=CC(OC4OC(CO)C(O)C(O)C4O)C=C3)oc2c1` (stereo not drawn), the GI50 in [1], in [2], in assay [3], in [4], in [5] and in assay [6] was > 100 µM (inactive) throughout. For the same molecule, the GI50 was > 100 µM (inactive) in assay [7]; > 100 µM (inactive) in [8]; more than 100 µM in [10]; > 100 µM (inactive) in assay [11]; > 100 µM (inactive) in [12]; > 100 µM (inactive) in [13]. For the same molecule, the GI50 in assay [14], in assay [15], in [16], in assay [17], in [18] and in [19] was > 100 µM (inactive) each time. The GI50 in [20] was > 100 µM (inactive).

`CCCCC(C(=O)NCCNC(=O)CCC(=O)N(C)O)C(=O)NCCNC(=O)CCC(=O)N(C)O`: the GI50 in [1], in assay [2], in assay [3], in [4], in [5] and in assay [6] was > 100 µM (inactive) each time. The GI50 was > 100 µM (inactive) in assay [7]; > 100 µM (inactive) in [8]; more than 100 µM in assay [10]; > 100 µM (inactive) in [11]; > 100 µM (inactive) in assay [12]; > 100 µM (inactive) in assay [13]. The GI50 in [14], in [15], in [16], in assay [17], in assay [18] and in [19] was > 100 µM (inactive) in each case. For the same molecule, the GI50 in [20] was > 100 µM (inactive).
